{"source": "patent US10898542B2", "about": "“Topical compositions comprising OB-fold variants” (AFFILOGIC, priority 2013, dated 2021)", "key": {"[1]": {"tested_on": "skin inflammation similar to psoriasis caused by imiquimod (Aldara)", "test": "Imiquimod-induced psoriasis-type ear inflammation, topical treatment, PASI score", "type": "in vivo, Balb/c mice", "details": "cream on right ear; mice licked their ears, systemic effect after ingestion very probable", "experimental": "In order to verify the skin penetration of nanofitins and the preservation of their properties, in particular their property of neutralizing the receptor-ligand relationship, inflammation models of psoriasis type were used and the reduction in inflammation (PASI score) after topical administration of anti-inflammatory nanofitins directly to the skin was measured.\nThese nanofitins target two different cytokines involved in psoriasiform inflammation, but with different localizations, from the basal layers of the dermis just into the epidermis (Nestle et al., Nature Reviews Immunology 9, 679-691, 2009). The nanofitins in question neutralize the binding of the targeted cytokines with their receptor. In order to inhibit the action of these cytokines during inflammation of psoriasis type, it is necessary to reach the layers where they are located, either systemically as therapeutic antibodies do, or topically via the skin. The measurement of an anti-inflammatory effect by topical administration of nanofitins thus attests to penetration of the nanofitins through the skin and to an associated therapeutic efficacy.\nThe local application of imiquimod (Aldara) to the internal face of the ears of mice causes a skin inflammation similar to psoriasis (Van der Fits et al., J Immunol. 2009 May 1; 182(9):5836-45, Flutter et al., Eur J Immunol. 2013 December; 43(12):3138-46). […]"}, "[2]": {"test": "Penetration through rabbit cornea in reaction chambers", "type": "in vitro ADME", "details": "male, Fauve de Bourgogne, 37° C., sampling 0 h, 2 h and 4 h, 0.5 cm^2, read-out: apparent permeability", "procedure": "Three male rabbits (Fauve de Bourgogne) were used.\nThe principle is the same as for the skin permeability.\n3 ml of formulation containing each nanofitin were placed on the donor side of the reaction chambers and 3 ml of PBS were placed on the receiver side. Freshly taken corneal tissues were placed between the two half-chambers.\nThe temperature was maintained at 37° C. throughout the study and the oxygenation was provided by continuous perfusion of carbogen (95% O2, 5% CO2). The exchange surface area was 0.5 cm^2.\nAt each following sampling period: 0 h, 2 h and 4 h, 500 μl of liquid were taken from the receiver side and replaced with PBS. • 100 μl of liquid were taken from the donor side and were not replaced.\nAt the end of the sampling period, the 0.5 cm^2 of corneas were removed from the reaction chamber and scraped with a scalpel. 1 ml of PBS was added to the samples, which were homogenized."}, "[3]": {"test": "Franz cell diffusion test, penetration through human skin ex vivo", "type": "in vitro ADME", "details": "human skin 1 mm, 100 μl at 5 mg/ml, 24 h, PBS pH 7.4 receiver, 2 cm^2", "text": "The test used is the Franz cell diffusion test.\nFranz cells are used to determine, ex vivo, the skin penetration of exogenous substances, and to actually measure the speed of passage through the various layers of the skin barrier of the molecules constituting the active ingredient deposited at the surface of the skin.\nA solution containing the molecule to be studied is deposited in a “donor” department of the device. The molecule then diffuses through a membrane (in the case in point the skin) and is collected in a “receiver” compartment.\nIn practice, after having removed the hypodermal layer (adipose tissue), the skin fragment is deposited on a diffusion cell, called a Franz cell. The deep face of the dermis is in contact with a receiver solution which is supposed to replace the interstitial fluid of the skin. A solution containing the molecule studied is deposited on top of the skin. […]\nThe nanofitin concentration was measured on each of the samples taken, using the BioLayer Interferometry technology which makes it possible to measure the interaction between two proteins. In the case in point, the nanofitin content is measured by the recognition of a poly-Histidine tag which is coupled to said nanofitins beforehand."}}, "data": [{"smiles": "C[C@H]1C[C@H]2[C@@H]3CCC4=CC(=O)C=C[C@]4(C)[C@@]3(F)[C@@H](O)C[C@]2(C)[C@@]1(O)C(=O)CCl", "note": "[clobetazole]", "values": [{"measurement": "inflammation on the nontreated left ear", "setting": "[1]", "result": "reduction in the inflammation on the nontreated left ear"}]}, {"smiles": "CCn1cc(C(=O)O)c(=O)c2cc(F)c(N3CCNCC3)cc21", "note": "[norfloxacin]", "values": [{"measurement": "Papp at 4 h", "setting": "[2]", "result": 11, "unit": "×10⁻⁶ cm/s"}]}, {"smiles": "Cn1c(=O)c2c(ncn2C)n(C)c1=O", "note": "[caffeine]", "values": [{"measurement": "percentage found on the receiver side (skin permeability)", "setting": "[3]", "result": "~10", "unit": "%"}]}]}
